Source: patent US20090047742A1 (priority 2005, published 2009)

Legend:
[1] = tested on: human GAPDH and β-actin mRNA; assay: real-time RT-PCR quantification of mRNA levels in T-Rex-293 cells; type: cell-based; conditions: MazF induction for 72 hours, T-Rex-293 cells
Description: Northern blot analysis and real-time PCR (RT-PCR) was preformed as previously described (Zhang, Y., et al., Mol. Cell 12: 913-923 (2003); Cuconati, A., et al., Genes Dev. 17: 2922-2932 (2003)). Total RNA from tetracycline-treated (0, 24, 48 and 72 hr) or untreated (0, 24, 48 and 72 hr) T-Rex-293 (mazF/pcDNA3) and T-Rex-293 (mazF/mazE) cells for were isolated through the use of Trizol Reagent (Gibco, Carlsbad, Calif.). For Northern blot analysis, 10 μg of total RNA from each condition was subjected to formaldehyde-agarose gel electrophoresis followed by transfer onto GeneScreen Plus membrane (NEN Life Science Products, Boston, Mass.). The blot was hybridized with ^32P-labeled human GAPDH or β-actin cDNA. One hundred ng of total RNA was subjected to real time RT-PCR with the Taqman EZ-RT PCR kit (PE Applied Biosystems, Lincoln Centre Drive Foster City, Calif.) using recommended conditions provided by the vendor. […] Reactions were carried out in triplicate and the relative amount of human GAPDH and β-actin mRNA was calculated from the difference in fluorescence signal in the 24-, 48- and 72-hr samples compared with the corresponding 0 hr sample.

T-Rex-293 cells [2] = assay: trypan blue exclusion viability; type: cell-based, human; conditions: T-Rex-293 (mazF/pcDNA3), MazF expression induced
Description: The viability of T-Rex-293 cells was determined by trypan blue exclusion as previously described (Degenhardt, K., et al., J. Biol. Chem. 277: 14127-14134 (2002)). T-Rex-293 (mazF/pcDNA3) and T-Rex-293 (mazF/mazE) cells were cultured for 24 hr before tetracycline treatment and then incubated for 0, 24, 48 and 72 hr at 37° C. in the presence or absence of 10 μg/ml tetracycline. After treatment, cells were collected by centrifugation of the supernatant plus adherent cells, which were harvested by trypsinization. Cells were resuspended in 500 μl of fresh medium containing 0.1% trypan blue solution (Sigma, St. Louis, Mo.) and then counted on a hemocytometer to assess the number of dead blue cells and the total number of cells counted. As a control for apoptotic cell death, T-Rex-293 (mazF/mazE) cells were treated with 1 μM staurosporine (Sigma, St. Louis, Mo.) for same time periods concurrently with tetracycline treatment.

T-Rex-293 cells [3] = assay: phase contrast morphology / cytopathic effect; type: cell-based, human; conditions: T-Rex-293, 72 hours post-induction of MazF
caspase-3, PARP = assay: Western blot of active caspase-3 and PARP in T-Rex-293 lysates; type: cell-based, human
Description: Western blot analysis and immunofluorescence were performed as previously described (Perez, D., and White, E. J. Cell Biol. 141: 1255-1266 (1998); Perez, D., and White, E. Mol. Cell 6: 53-63 (2000)). The term “Western blot” refers to a method for identifying proteins in a complex mixture; proteins are separated electrophoretically in a gel medium; transferred from the gel to a protein binding sheet or membrane; and the sheet or membrane containing the separated proteins exposed to specific antibodies which bind to, locate, and enable visualization of protein(s) of interest. T-Rex-293 (mazF/pcDNA3) and T-Rex-293 (mazF/mazE) cells were harvested at 0, 24, 48 and 72 hr post-treatment with tetracycline or staurosporine by scraping and centrifugation. All cell pellets were lysed in 2× Laemmli buffer. Cell lysates were subjected to electrophoresis on a 15% SDS-PAGE gel and then transferred onto an Immobilon-P membrane (Millipore, Bedford, Mass.). The blot was incubated with following antibody: anti-active caspase-3 rabbit polyclonal antibody (Cell Signaling Technology, Beverly, Mass.), anti-BAX, anti-BAK rabbit polyclonal antibody (NT) (Upstate Biotechnology Inc., Lake Placid, N.Y.), anti-BID goat polyclonal antibody (R&D Systems, Inc, Minneapolis, Minn.), anti-Bim rabbit polyclonal antibody (Alexis Biochemical, San Diego, Calif.), anti-BCL-2 hamster monoclonal antibody (PharMingen, San Diego, Calif.), anti-BCL-XL mouse monoclonal antibody (Trevigen, Gaithersburg, Md.), anti-MCL-1 rabbit polyclonal antibody (Stressgen Biotechnologies, Victoria, British Columbia, Canada), anti-PARP mouse monoclonal antibody (PharMingen, San Diego, Calif.), anti-PUMA rabbit polyclonal antibody (Nelson, D. A., et al., Genes Dev. 18: 2095-2107 (2004)), anti-E1A monoclonal antibody; anti-actin monoclonal antibody (Oncogene Research Products); and anti-Xpress monoclonal antibody (Invitrogen). An antibody directed to human NBK/BIK was generated by expression of a GST-tagged human NBK/BIK fusion protein encoding an N-terminal 78-amino acid region in bacteria and immunization of rabbits (Cocalico). Western Blots were developed with horseradish peroxidase-conjugated secondary antibodies using the ECL system (Amersham-Pharmacia Biotech, Piscataway, N.J.).

[4] = tested on: human GAPDH and β-actin mRNA; assay: Northern blot analysis of cellular mRNA in T-Rex-293 cells; type: cell-based; conditions: T-Rex-293 (mazF/pcDNA3) cells
Description: Northern blot analysis and real-time PCR (RT-PCR) was preformed as previously described (Zhang, Y., et al., Mol. Cell 12: 913-923 (2003); Cuconati, A., et al., Genes Dev. 17: 2922-2932 (2003)). Total RNA from tetracycline-treated (0, 24, 48 and 72 hr) or untreated (0, 24, 48 and 72 hr) T-Rex-293 (mazF/pcDNA3) and T-Rex-293 (mazF/mazE) cells for were isolated through the use of Trizol Reagent (Gibco, Carlsbad, Calif.). For Northern blot analysis, 10 μg of total RNA from each condition was subjected to formaldehyde-agarose gel electrophoresis followed by transfer onto GeneScreen Plus membrane (NEN Life Science Products, Boston, Mass.). The blot was hybridized with ^32P-labeled human GAPDH or β-actin cDNA. One hundred ng of total RNA was subjected to real time RT-PCR with the Taqman EZ-RT PCR kit (PE Applied Biosystems, Lincoln Centre Drive Foster City, Calif.) using recommended conditions provided by the vendor. Primers to analyze the level of human GAPDH mRNA were obtained from Applied Biosystems, and a probe for GAPDH was supplied with 5′ linkage to the reporter dye 2, 7-dimethoxy-4, 5-dichloro-6-carboxy-fluoroecein (JOE), and 3′ linkage to the quencher 6-carboxy-tetramethylrhodamine (TAMURA). β-actin primer sequences were 5′-[…]-3′ and 5′-[…]-3′. β-actin probe sequence was FAM-5′-[…] TTCC-3′-TAMURA. Reactions were carried out in triplicate and the relative amount of human GAPDH and β-actin mRNA was calculated from the difference in fluorescence signal in the 24-, 48- and 72-hr samples compared with the corresponding 0 hr sample.
To assess cellular mRNA levels, total RNA was isolated from whole cells of Tet-treated or -untreated T-Rex-293 cells and subjected to Northern blot analysis using human GAPDH and β-actin cDNA probes. […] Labeled single-stranded DNA fragments complementary to the specific mRNA being sought then are hybridized to the bound mRNA and the label detected by suitable means. […]

MazF: E. coli toxin; sequence specific endoribonuclease (mRNA interferase) cleaving single-stranded RNAs at ACA sequences; expressed from plasmid pcDNA4/TO/mazF
decrease of both GAPDH and β-actin mRNAs (real-time RT-PCR) [1]: > 90% | cell viability (trypan blue exclusion) (T-Rex-293 cells [2]): dropped strikingly | number of attached cells (T-Rex-293 cells [3]): dramatically decreased | cleaved PARP (Western blot) (caspase-3, PARP; T-Rex-293 (mazF/pcDNA3) treated with Tet for 48 hours): detected | cleaved PARP levels (Western blot) (caspase-3, PARP; T-Rex-293 (mazF/pcDNA3), 72 hours post-induction of MazF): further increased | processed active caspase-3 (Western blot) (caspase-3, PARP; extracts from T-Rex-293 (mazF/pcDNA3) cells treated with Tet): presence of the processed active form of caspase-3 | levels of both GAPDH and β-actin mRNAs (Northern blot) ([4]; 48 hours post-induction of MazF): almost completely lost | levels of both GAPDH and β-actin mRNAs (Northern blot) ([4]; after 24 hours of MazF induction by Tet): dramatically decreased
